Experimental data published in US20250352520A1, “USE OF DEXPRAMIPEXOLE FOR THE TREATMENT OF EOSINOPHILIC COPD” (Areteia Therapeutics, Inc., priority 2024, published 2025).

Conditions: Week 12; >=50% AEC reduction at Week 16

Question: With `CCCN[C@@H]1CCc2nc(N)sc2C1` [Dexpramipexole, (6R)-2-amino-4,5,6,7-tetrahydro-6-(propylamino)benzothiazole] as the molecule, how does the “Pre-BD FEF25-75 % change from baseline, Max” value read?
Answer: 14%

Question: And the “Pre-BD FEF25-75 % change from baseline, Mean ± SD” value?
Answer: 6.3 ± 8.24%

Question: What about the “Pre-BD FEF25-75 % change from baseline, Median” value of the same molecule?
Answer: 6.8%

Question: What about the “Pre-BD FEF25-75 % change from baseline, Min” value of the same molecule?
Answer: −2%

Question: What about the “Pre-BD FEF25-75 % change from baseline, Q1” value of the same molecule?
Answer: −2%

Question: What about the “Pre-BD FEF25-75 % change from baseline, Q3” value of the same molecule?
Answer: 14%

Question: What about the “Pre-BD FEF25-75 Observed, Max” value of the same molecule?
Answer: 900 mL/s

Question: What about the “Pre-BD FEF25-75 Observed, Mean ± SD” value of the same molecule?
Answer: 640.0 ± 351.57 mL/s

Question: And the “Pre-BD FEF25-75 Observed, Median” value?
Answer: 780.0 mL/s

Question: And the “Pre-BD FEF25-75 Observed, Min” value?
Answer: 240 mL/s

Question: And the “Pre-BD FEF25-75 Observed, Q1” value?
Answer: 240 mL/s

Question: And the “Pre-BD FEF25-75 Observed, Q3” value?
Answer: 900 mL/s

Question: What about the “Pre-BD FEF25-75 change from baseline, Max” value of the same molecule?
Answer: 50 mL/s

Question: And the “Pre-BD FEF25-75 change from baseline, Mean ± SD” value?
Answer: 20.0 ± 36.06 mL/s

Question: What about the “Pre-BD FEF25-75 change from baseline, Median” value of the same molecule?
Answer: 30.0 mL/s

Question: And the “Pre-BD FEF25-75 change from baseline, Min” value?
Answer: -20 mL/s

Question: And the “Pre-BD FEF25-75 change from baseline, Q1” value?
Answer: -20 mL/s

Question: What about the “Pre-BD FEF25-75 change from baseline, Q3” value of the same molecule?
Answer: 50 mL/s

Question: What about the “Pre-BD FEV1 % change from baseline, Max” value of the same molecule?
Answer: 37%

Question: What about the “Pre-BD FEV1 % change from baseline, Mean ± SD” value of the same molecule?
Answer: 25.3 ± 19.37%

Question: What about the “Pre-BD FEV1 % change from baseline, Median” value of the same molecule?
Answer: 36. %

Question: What about the “Pre-BD FEV1 % change from baseline, Min” value of the same molecule?
Answer: 3%

Question: What about the “Pre-BD FEV1 % change from baseline, Q1” value of the same molecule?
Answer: 3%

Question: And the “Pre-BD FEV1 % change from baseline, Q3” value?
Answer: 37%

Question: What about the “Pre-BD FEV1 Observed, Max” value of the same molecule?
Answer: 1780 mL

Question: And the “Pre-BD FEV1 Observed, Mean ± SD” value?
Answer: 1496.7 ± 448.14 mL

Question: And the “Pre-BD FEV1 Observed, Median” value?
Answer: 1730.0 mL

Question: What about the “Pre-BD FEV1 Observed, Min” value of the same molecule?
Answer: 980 mL

Question: And the “Pre-BD FEV1 Observed, Q1” value?
Answer: 980 mL

Question: What about the “Pre-BD FEV1 Observed, Q3” value of the same molecule?
Answer: 1780 mL

Question: What about the “Pre-BD FEV1 change from baseline, Max” value of the same molecule?
Answer: 480 mL

Question: What about the “Pre-BD FEV1 change from baseline, Mean ± SD” value of the same molecule?
Answer: 263.3 ± 215.02 mL

Question: And the “Pre-BD FEV1 change from baseline, Median” value?
Answer: 260.0 mL

Question: What about the “Pre-BD FEV1 change from baseline, Min” value of the same molecule?
Answer: 50 mL

Question: What about the “Pre-BD FEV1 change from baseline, Q1” value of the same molecule?
Answer: 50 mL

Question: What about the “Pre-BD FEV1 change from baseline, Q3” value of the same molecule?
Answer: 480 mL

Question: And the “Pre-BD FVC % change from baseline, Max” value?
Answer: 18%

Question: What about the “Pre-BD FVC % change from baseline, Mean ± SD” value of the same molecule?
Answer: 12.0 ± 5.17%

Question: What about the “Pre-BD FVC % change from baseline, Median” value of the same molecule?
Answer: 11.1%

Question: What about the “Pre-BD FVC % change from baseline, Min” value of the same molecule?
Answer: 7%

Question: And the “Pre-BD FVC % change from baseline, Q1” value?
Answer: 7%

Question: And the “Pre-BD FVC % change from baseline, Q3” value?
Answer: 18%

Question: What about the “Pre-BD FVC Observed, Max” value of the same molecule?
Answer: 2800 mL

Question: What about the “Pre-BD FVC Observed, Mean ± SD” value of the same molecule?
Answer: 2690.0 ± 181.93 mL

Question: And the “Pre-BD FVC Observed, Median” value?
Answer: 2790.0 mL

Question: And the “Pre-BD FVC Observed, Min” value?
Answer: 2480 mL

Question: And the “Pre-BD FVC Observed, Q1” value?
Answer: 2480 mL

Question: And the “Pre-BD FVC Observed, Q3” value?
Answer: 2800 mL

Question: What about the “Pre-BD FVC change from baseline, Max” value of the same molecule?
Answer: 370 mL

Question: And the “Pre-BD FVC change from baseline, Mean ± SD” value?
Answer: 280.0 ± 90.00 mL

Question: And the “Pre-BD FVC change from baseline, Median” value?
Answer: 280.0 mL

Question: What about the “Pre-BD FVC change from baseline, Min” value of the same molecule?
Answer: 190 mL

Question: What about the “Pre-BD FVC change from baseline, Q1” value of the same molecule?
Answer: 190 mL

Question: What about the “Pre-BD FVC change from baseline, Q3” value of the same molecule?
Answer: 370 mL

Question: What about the “Pre-BD Peak Flow % change from baseline, Max” value of the same molecule?
Answer: 82%

Question: What about the “Pre-BD Peak Flow % change from baseline, Mean ± SD” value of the same molecule?
Answer: 31.8 ± 45.54%

Question: And the “Pre-BD Peak Flow % change from baseline, Median” value?
Answer: 21.9%

Question: What about the “Pre-BD Peak Flow % change from baseline, Min” value of the same molecule?
Answer: −8%

Question: What about the “Pre-BD Peak Flow % change from baseline, Q1” value of the same molecule?
Answer: −8%

Question: What about the “Pre-BD Peak Flow % change from baseline, Q3” value of the same molecule?
Answer: 82%

Question: What about the “Pre-BD Peak Flow Observed, Max” value of the same molecule?
Answer: 285 L/min

Question: What about the “Pre-BD Peak Flow Observed, Mean ± SD” value of the same molecule?
Answer: 208.7 ± 66.53 L/min

Question: What about the “Pre-BD Peak Flow Observed, Median” value of the same molecule?
Answer: 178.0 L/min

Question: What about the “Pre-BD Peak Flow Observed, Min” value of the same molecule?
Answer: 163 L/min

Question: What about the “Pre-BD Peak Flow Observed, Q1” value of the same molecule?
Answer: 163 L/min

Question: What about the “Pre-BD Peak Flow Observed, Q3” value of the same molecule?
Answer: 285 L/min

Question: And the “Pre-BD Peak Flow change from baseline, Max” value?
Answer: 128 L/min

Question: And the “Pre-BD Peak Flow change from baseline, Mean ± SD” value?
Answer: 48.7 ± 72.45 L/min

Question: What about the “Pre-BD Peak Flow change from baseline, Median” value of the same molecule?
Answer: 32.0 L/min

Question: What about the “Pre-BD Peak Flow change from baseline, Min” value of the same molecule?
Answer: -14 L/min

Question: What about the “Pre-BD Peak Flow change from baseline, Q1” value of the same molecule?
Answer: -14 L/min

Question: What about the “Pre-BD Peak Flow change from baseline, Q3” value of the same molecule?
Answer: 128 L/min
